Data published in ChEMBL document CHEMBL3091297, “Antiprion compounds that reduce PrP(Sc) levels in dividing and stationary-phase cells” (Bioorg Med Chem, 2013).

Key:
[1] = cells; assay type: cell-based; details: Mus musculus, N2a-cl3, 120 h
[2] = in vitro; details: mouse, dividing ScN2a-cl3 cells
[3] = tested on: N2a-cl3; experiment: Inhibition of RML prion protein infected in mouse stationary-phase ScN2a-cl3 cells expressing full length mouse PrP assessed as reduction of PrPsc level at 10 uM after 5 days by ELISA; assay type: cell-based
[4] = tested on: N2a-cl3; experiment: Inhibition of RML prion protein infected in mouse dividing ScN2a-cl3 cells expressing full length mouse PrP assessed as reduction of PrPsc level at 10 uM after 5 days by ELISA; assay type: cell-based
[5] = Inhibition of RML prion protein infected in mouse dividing ScN2a-cl3 cells expressing full length mouse PrP assessed as reduction of PrPsc level after 5 days by Western blotting analysis; assay type: cell-based; details: N2a-cl3, 120 h

Row | SMILES | EC50 [1] | CC50 at 120 h [2] | inhibition [3] | inhibition [4] | EC50 [5]
1 | COc1ccc2cc1Oc1ccc(cc1)C[C@H]1c3cc(c(OC)cc3CCN1C)Oc1c(OC)c(OC)cc3c1[C@H](C2)N(C)CC3 [FANCHININ] | 2150 nM | 5010 nM | – | – | –
2 | Cc1ccc2c(c1)c1c(n2CC(O)CO)C(=O)CCC1 (stereo not given) | – | – | 39% | 14% | –
3 | CCN1CCN(c2ccc(Nc3ccnc4cc5ccccc5cc34)cc2)CC1 | – | – | 51% | 76% | –
4 | OCCNCc1cc(Br)ccc1OCc1ccc(Cl)cc1Cl | 4300 nM | – | – | – | 1990 nM
5 | CC(=O)c1ccc(N2CCN(Cc3ccccc3Cl)CC2)cc1 | – | – | 41% | 86% | –
6 | CN(C)CCNc1nc(-c2ccc(Cl)cc2)nc2ccccc12 | 2650 nM | – | – | – | 2010 nM
7 | CC(=O)c1ccc(N2CCN(Cc3cccc(Br)c3)CC2)cc1 | – | – | 39% | 67% | –
8 | CC(=O)c1ccc(N2CCN(Cc3c(C)n(C)n(-c4ccccc4)c3=O)CC2)cc1 | – | – | 35% | 64% | –
9 | Nc1c(C(=O)Nc2ccc(F)cc2)sc2nc(-c3ccc4c(c3)OCO4)ccc12 | 750 nM | > 10000 nM | – | – | –
10 | COc1ccc(-c2cc(-c3ccc(OC)cc3O)[nH]n2)cc1 | 70 nM | – | – | – | 100 nM
11 | Cc1ccc2[nH]c3c(c2c1)CCCC3NCC12CC3CC(CC(C3)C1)C2 (stereo not given) | – | – | 53% | 98% | –
12 | COc1ccc2cc3c(N)c(C(=O)Nc4ccc(C(C)=O)cc4)sc3nc2c1 | 80 nM | > 10000 nM | – | – | 60 nM
13 | Cn1c(=N)n(CC(=O)c2ccc(Cl)cc2)c2ccccc21 | 7320 nM | – | – | – | 4970 nM
14 | O=C(Nc1ccc(Cl)c(Cl)c1)NC(CC(=O)c1ccc([N+](=O)[O-])cc1)C(Cl)(Cl)Cl (stereo not given) | – | – | 61% | 83% | –
15 | Cc1ccc2[nH]c3c(c2c1)CCCC3NC1CCCCC1 (stereo not given) | – | – | 48% | 27% | –
16 | Cc1[nH]c2ccccc2c1-c1csc(-c2cccnc2)n1 | 3130 nM | – | – | – | 1700 nM
17 | CC(=O)c1ccc2c(c1)N(CCCN(C)C)c1ccccc1S2 [ACEPROMAZINE] | 6930 nM | > 10000 nM | – | – | –
18 | CCOc1ccc(NC(=O)c2cc3ccccc3cc2O)cc1 | 130 nM | – | – | – | 40 nM
19 | CC(=O)c1ccc(N2CCN(Cc3cccnc3)CC2)cc1 | – | – | – | – | 890 nM
20 | COc1ccc(-c2ccc3c(N)c(C(=O)Nc4ccc(F)cc4)sc3n2)cc1OC | 240 nM | > 10000 nM | – | – | –
21 | COc1ccc(-c2ccc3c(N)c(C(=O)Nc4cc(F)ccc4F)sc3n2)cc1 | > 10000 nM | > 10000 nM | – | – | –
22 | Oc1ccc(/C=C/c2cc(O)cc(O)c2)cc1 [RESVERATROL] | 3060 nM | – | – | – | 580 nM
23 | CCc1ccc(-c2cn3ccccc3n2)cc1 | 9160 nM | – | – | – | 4720 nM

Row | SMILES | EC50 [1] | CC50 at 120 h [2] | inhibition [3] | inhibition [4] | EC50 [5]
24 | O=C(Nc1nc(-c2ccc3ccccc3c2)cs1)C1CC1 | 990 nM | – | – | – | 570 nM
25 | c1cncc(-c2nc(-c3c[nH]c4ccccc34)cs2)c1 | 270 nM | – | – | – | 830 nM
26 | CC(=O)c1ccc(N2CCN(Cc3cccc(Cl)c3)CC2)cc1 | – | – | 31% | 84% | –
27 | CCc1ccc(-c2cn3cc(C)ccc3n2)cc1 | 710 nM | – | – | – | 290 nM
28 | CC(=O)c1ccc(N2CCN(Cc3ccc(Br)s3)CC2)cc1 | – | – | 34% | 97% | –
29 | COc1ccc(CNC(=O)c2sc3nc(-c4cccs4)ccc3c2N)cc1 | 1830 nM | > 10000 nM | – | – | –
30 | COc1ccc(-c2ccc3c(N)c(C(=O)Nc4cc(OC)c(OC)c(OC)c4)sc3n2)cc1 | 420 nM | > 10000 nM | – | – | –
31 | CC(=O)c1ccc(NC(=O)c2sc3nc4c(cc3c2N)CCCC4)cc1 | > 10000 nM | > 10000 nM | – | – | –
32 | N#Cc1ccc(/C=C/c2ccc(F)cc2)cc1 | 1520 nM | – | – | – | 530 nM
33 | CNCCc1c(-c2ccccc2)n(-c2ccccc2)c2ccccc12 | – | – | 46% | 81% | –
34 | COc1ccccc1OCCNCC(O)COc1cccc2[nH]c3ccccc3c12 (stereo not given) [CARVEDILOL] | 2280 nM | – | – | – | –
35 | Nc1c(/N=N/c2ccc(-c3ccc(/N=N/c4cc(S(=O)(=O)O)c5ccccc5c4N)cc3)cc2)cc(S(=O)(=O)O)c2ccccc12 [CONGO RED] | 450 nM | > 10000 nM | – | – | –
36 | COc1ccc(-c2ccc3c(N)c(C(=O)Nc4ccc(SC)cc4)sc3n2)cc1 | 290 nM | > 10000 nM | – | – | –
37 | Clc1ccc(N2CCN(C3CCSC3)CC2)cc1 (stereo not given) | – | – | 51% | 42% | –
38 | CC(=O)c1ccc(NC(=O)c2sc3nc(-c4cccs4)ccc3c2N)cc1 | 100 nM | > 10000 nM | – | – | –
39 | COc1ccc(-c2ccc3c(N)c(C(=O)Nc4ccc(F)cc4)sc3n2)cc1 | 140 nM | > 10000 nM | – | – | –
40 | CCOc1ccc(/N=N/c2ccc(N)cc2N)cc1 [ETHOXAZENE] | 4760 nM | > 10000 nM | – | – | –
41 | CC(=O)c1ccc(N2CCN(Cc3ccc(F)cc3F)CC2)cc1 | – | – | 30% | 85% | –
42 | O=C(Nc1ccc(Cl)cc1)Nc1ccc(C(F)(F)F)cc1Cl | – | – | 63% | 17% | –
43 | CCOc1ccc(C(=O)Nc2ccc3oc(-c4ccc(OC)cc4)nc3c2)cc1 | 60 nM | – | – | – | 130 nM
44 | CC(=O)c1ccc(N2CCN(Cc3ccccc3)CC2)cc1 | 710 nM | – | – | – | 620 nM
45 | COc1ccc(CCNC(=O)c2sc3nc(-c4cccs4)ccc3c2N)cc1OC | > 10000 nM | > 10000 nM | – | – | –
46 | CC(=O)c1ccc(N2CCN(CC(C)CCC=C(C)C)CC2)cc1 (stereo not given) | – | – | 55% | 78% | –

Row | SMILES | EC50 [1] | CC50 at 120 h [2] | inhibition [3] | inhibition [4] | EC50 [5]
47 | COc1cccc(Nc2nc(N)c3ccccc3n2)c1 | 4020 nM | – | – | – | 5990 nM
48 | Cn1c(=N)n(CC(=O)c2ccc(Br)cc2)c2ccccc21 | 2580 nM | – | – | – | 1450 nM
49 | Nc1c(C(=O)Nc2ccc3c(c2)OCCO3)sc2nc(-c3cccs3)ccc12 | 420 nM | > 10000 nM | – | – | –
50 | CN1CCc2cccc3c2[C@H]1Cc1ccc(O)c(O)c1-3 [APOMORPHINE] | > 10000 nM | > 10000 nM | – | – | –
51 | COc1ccc(-c2ccc3c(N)c(C(=O)Nc4ccc(OC)c(OC)c4)sc3n2)cc1 | > 10000 nM | > 10000 nM | – | – | –
52 | COc1ccc(-c2cc(-c3ccc(C)cc3O)[nH]n2)cc1 | 260 nM | – | – | – | 120 nM
53 | COc1cc(N)c(-c2ccc3cc(OC)c(OC)cc3n2)cc1OC | 2560 nM | – | – | – | 1830 nM
54 | O=C(Nc1nc(-c2ccc(-c3ccccc3)cc2)cs1)C1CC1 | 250 nM | – | – | – | 190 nM
55 | COc1ccc(CN2CCN(c3ccc(C(C)=O)cc3)CC2)c(C)c1C | – | – | 41% | 95% | –
56 | O=C(Nc1ccccc1)Nc1ccc(F)c(Cl)c1 | – | – | 56% | 87% | –
57 | O=C(Nc1ccc(Br)cc1)Nc1cc(Cl)cc(Cl)c1 | – | – | 51% | 91% | –
58 | c1ccc2cc(-c3cn4ccsc4n3)ccc2c1 | 6020 nM | – | – | – | 2490 nM
59 | Nc1c(C(=O)Nc2cc(F)ccc2F)sc2nc(-c3ccncc3)ccc12 | 2220 nM | > 10000 nM | – | – | –
60 | O=C(Nc1ccc(Cl)cc1)Nc1ccc(Cl)c(F)c1 | – | – | 66% | 25% | –
61 | COc1ccc(C(=O)Nc2ccc(-c3csc(C)n3)cc2)cc1 | 400 nM | – | – | – | 160 nM
62 | COc1cc(CNCCO)cc(Br)c1OCc1ccccc1Cl | 4830 nM | – | – | – | 2740 nM
63 | COc1ccc(-c2nc3cc(NC(=O)c4ccc(OCc5ccccc5)cc4)ccc3o2)cc1 | 70 nM | – | – | – | 2570 nM
64 | CCc1ccc(-c2cn3cc(C)sc3n2)cc1 | 1780 nM | – | – | – | 520 nM
65 | O=C(Nc1ccc(F)c(Cl)c1)Nc1ccc(Cl)c(Cl)c1 | – | – | 61% | 92% | –
66 | COc1ccc2[nH]c3c(OC)ncnc3c2c1 | – | – | 37% | 81% | –
67 | COc1cc(CN2CCN(c3cccc(C)c3C)CC2)cc(Br)c1O | – | – | 48% | 22% | –
68 | CN1C[C@H](C(=O)N[C@]2(C)O[C@@]3(O)[C@@H]4CCCN4C(=O)[C@H](Cc4ccccc4)N3C2=O)C[C@@H]2c3cccc4[nH]cc(c34)C[C@H]21 [DIHYDROERGOTAMINE] | 6440 nM | > 10000 nM | – | – | –
